Measurements as given in EPA's ToxRefDB 2.

Key:
dog [1] = details: Chronic toxicity, beagle, Oral, Capsule, dose end: 52 week
rat [2] = details: Multigenerational reproductive toxicity study, sprague dawley, Oral, Feed, dose end: 2 generation
mouse [3] = details: Carcinogenicity, cd1, Oral, Feed, dose end: 2 year, group: systemic
rat [4] = details: Combined chronic toxicity/carcinogenicity, sprague dawley, Oral, Feed, dose end: 24 month
rat [5] = details: Subchronic oral toxicity in rodents, fischer, Feed, dose end: 13 week, group: systemic
dog [6] = details: Subchronic oral toxicity in nonrodent, beagle, Feed, dose end: 13 week, group: systemic
mouse [7] = details: Subchronic oral toxicity in rodents, cd1, Feed, dose end: 13 week, group: systemic, systemic / clinical chemistry / alkaline phosphatase (alp/alk) / alkaline phosphatase (alp/alk) + systemic / organ weight / liver / nos + …
dog [8] = details: Chronic toxicity, beagle, Oral, Feed, dose end: 52 week, group: systemic
rat [9] = details: Combined chronic toxicity/carcinogenicity, fischer, Oral, Feed, dose end: 2 year, group: systemic
rat [10] = details: Multigenerational reproductive toxicity study, other, Oral, Feed, dose end: 2 generation
dog [11] = details: Chronic toxicity, beagle, Oral, Feed, dose end: 52 week, group: systemic; remark: listed apart in the source
mouse [12] = details: Subchronic oral toxicity in rodents, cd1, Feed, dose end: 98 day, group: systemic, systemic / organ weight / liver / absolute + systemic / organ weight / liver / relative to body weight + systemic / pathology microscopic / …
rabbit = details: Prenatal developmental toxicity study, new zealand white, Oral, Gavage/Intubation, dose end: 18 GD
rat [13] = details: Combined chronic toxicity/carcinogenicity, wistar, Oral, Feed, dose end: 24 month, group: systemic
mouse [14] = details: Carcinogenicity, other, Oral, Feed, dose end: 24 month, group: systemic
rat [15] = details: Subchronic oral toxicity in rodents, wistar, Feed, dose end: 98 day, group: systemic
rat [16] = details: Prenatal developmental toxicity study, sprague dawley, Oral, Gavage/Intubation, dose end: 15 GD
[17] = group: cholinesterase, cholinesterase / cholinesterase / cholinesterase / brain cholinesterase (che) + cholinesterase / cholinesterase / cholinesterase / plasma …
[18] = group: systemic, systemic / in life observation / body weight / body weight gain + systemic / in life observation / food consumption / food efficiency + …
[19] = group: offspring, developmental / offspring survival late / lactation index / lactation index
[20] = group: offspring, systemic / in life observation / body weight / offspring (pup) weight
[21] = group: parental, systemic / in life observation / body weight / body weight
[22] = group: reproductive, reproductive / offspring survival early / litter size / litter size
[23] = group: reproductive, reproductive / offspring survival early / litter size / litter size + reproductive / offspring survival early / litter viability other / …
[24] = systemic / in life observation / mortality / mortality + systemic / hematology / lymphocyte / lymphocyte + systemic / in life observation / …
[25] = group: cholinesterase, cholinesterase / cholinesterase / cholinesterase / brain cholinesterase (che) + cholinesterase / cholinesterase / cholinesterase / …
[26] = group: systemic, systemic / in life observation / mortality / mortality
[27] = group: systemic, systemic / in life observation / mortality / mortality + systemic / clinical chemistry / alanine aminotransferase (alt/sgpt) / alanine …
[28] = systemic / clinical chemistry / albumin / albumin + systemic / clinical chemistry / cholesterol / cholesterol + systemic / clinical …
[29] = systemic / pathology microscopic / kidney / crystals + systemic / pathology microscopic / kidney / hyperplasia + systemic / organ weight / …
[30] = systemic / pathology microscopic / kidney / hyperplasia + systemic / in life observation / body weight / body weight gain + systemic / in …
[31] = systemic / in life observation / body weight / body weight + systemic / in life observation / body weight / body weight gain + systemic / …
[32] = group: offspring, systemic / in life observation / body weight / offspring (pup) weight gain
[33] = group: parental, systemic / organ weight / liver / relative to body weight
[34] = group: parental, systemic / pathology microscopic / kidney / crystals + systemic / pathology microscopic / kidney / degeneration + systemic / pathology …
[35] = systemic / clinical chemistry / alanine aminotransferase (alt/sgpt) / alanine aminotransferase (alt/sgpt) + systemic / clinical chemistry / …
[36] = systemic / pathology microscopic / spleen / hemosiderosis + systemic / pathology microscopic / liver / cytoplasmic alteration
[37] = group: developmental, developmental / developmental malformation / bone / incomplete ossification
[38] = group: maternal, systemic / in life observation / body weight / body weight gain + systemic / in life observation / food consumption / food consumption
[39] = systemic / clinical chemistry / creatinine / creatinine
[40] = systemic / clinical chemistry / albumin-globulin ratio / albumin-globulin ratio + systemic / clinical chemistry / glucose / glucose
[41] = systemic / pathology microscopic / liver / fatty change + systemic / pathology microscopic / liver / granuloma + systemic / pathology …
[42] = systemic / in life observation / body weight / body weight + systemic / in life observation / body weight / body weight gain + systemic / in…
[43] = group: developmental, developmental / developmental malformation / bone / absent + developmental / developmental malformation / bone / delayed ossification + …
[44] = group: maternal, systemic / in life observation / clinical signs / abnormal gait + systemic / in life observation / body weight / body weight + systemic / in…

In the case of `COP(=O)(OC)O/C(C)=C/C(=O)N(C)C` [Dicrotophos], the LEL (dog [1]; [17]) is reported as 0.1 mg/kg/day, the LOAEL (dog [1]; [17]) is reported as 0.1 mg/kg/day and the NEL (dog [1]; [17]) is reported as 0.025 mg/kg/day. For the same compound, the NOAEL (dog [1]; [17]) was 0.025 mg/kg/day, the LOAEL (dog [1]; group: systemic, systemic / in life observation / body weight / body weight gain + systemic / in life observation / food consumption / food efficiency) was 0.1 mg/kg/day and the LEL (dog [1]; [18]) was 0.1 mg/kg/day. For the same compound, the NEL (dog [1]; [18]) was 0.025 mg/kg/day, the NOAEL (dog [1]; [18]) was 0.025 mg/kg/day and the LOAEL (rat [2]; [19]) was > 2.53 mg/kg/day. The NOAEL (rat [2]; [19]) was ≥ 2.53 mg/kg/day, the LEL (rat [2]; [20]) was 0.05 mg/kg/day and the NEL (rat [2]; [20]) was < 0.05 mg/kg/day. The LEL (rat [2]; [21]) was 0.06 mg/kg/day, the NEL (rat [2]; [21]) was < 0.06 mg/kg/day and the LOAEL (rat [2]; group: parental, systemic / in life observation / body weight / body weight + systemic / in life observation / food consumption / food efficiency) was 0.49 mg/kg/day. For the same compound, the NOAEL (rat [2]; group: parental, systemic / in life observation / body weight / body weight + systemic / in life observation / food consumption / food efficiency + systemic…) was 0.05 mg/kg/day, the LEL (rat [2]; [22]) was 0.56 mg/kg/day and the LOAEL (rat [2]; [22]) was 0.56 mg/kg/day. The NEL (rat [2]; [23]) was 0.05 mg/kg/day, the NOAEL (rat [2]; [23]) was 0.05 mg/kg/day and the LOAEL (mouse [3]; systemic / in life observation / mortality / mortality) was 1.58 mg/kg/day. It also gave an NEL (mouse [3]; [24]) of 0.31 mg/kg/day, an NOAEL (mouse [3]; [24]) of 0.31 mg/kg/day and an LEL (mouse [3]; systemic / in life observation / mortality / mortality + systemic / pathology gross / eye / discolored) of 1.58 mg/kg/day. For the same compound, the LEL (rat [4]; [25]) was 0.02 mg/kg/day, the LOAEL (rat [4]; [25]) was 0.02 mg/kg/day and the NEL (rat [4]; [25]) was < 0.02 mg/kg/day. The NOAEL (rat [4]; [25]) was < 0.02 mg/kg/day, the LEL (rat [4]; [26]) was 0.25 mg/kg/day and the LOAEL (rat [4]; [26]) was 0.25 mg/kg/day. It also gave an NEL (rat [4]; [27]) of 0.02 mg/kg/day and an NOAEL (rat [4]; [27]) of 0.02 mg/kg/day.
`COc1cnc(OC)n2nc(NS(=O)(=O)c3c(OCC(F)F)cccc3C(F)(F)F)nc12` [Penoxsulam] gave an LOAEL (rat [5]; [28]) of 263 mg/kg/day, an NOAEL (rat [5]; [28]) of 53.3 mg/kg/day and an LEL (rat [5]; systemic / in life observation / clinical signs / perineal soiling) of 52.3 mg/kg/day. The NEL (rat [5]; systemic / in life observation / clinical signs / perineal soiling + systemic / hematology / blood clotting / blood clotting - prothrombin …) was 5.2 mg/kg/day, the LOAEL (dog [6]; systemic / pathology microscopic / kidney / crystals + systemic / pathology microscopic / kidney / hyperplasia) was 49.4 mg/kg/day and the LEL (dog [6]; [29]) was 49.4 mg/kg/day. The NEL (dog [6]; [29]) was 17.8 mg/kg/day, the NOAEL (dog [6]; [29]) was 17.8 mg/kg/day and the LEL (mouse [7]) was 511 mg/kg/day. For the same compound, the LOAEL (mouse [7]) was > 1030 mg/kg/day, the NEL (mouse [7]) was 102 mg/kg/day and the NOAEL (mouse [7]) was ≥ 1030 mg/kg/day. For the same compound, the LOAEL (dog [8]; systemic / pathology microscopic / kidney / hyperplasia) was 46.2 mg/kg/day, the LEL (dog [8]; [30]) was 46.2 mg/kg/day and the NEL (dog [8]; [30]) was 14.7 mg/kg/day. For the same compound, the NOAEL (dog [8]; [30]) was 14.7 mg/kg/day, the LOAEL (rat [9]; [31]) was 254 mg/kg/day and the NEL (rat [9]; [31]) was 5.1 mg/kg/day. For the same compound, the NOAEL (rat [9]; [31]) was 50.9 mg/kg/day, the LEL (rat [9]; systemic / pathology microscopic / kidney / hyperplasia + systemic / in life observation / clinical signs / perineal soiling) was 50.9 mg/kg/day and the LEL (rat [10]; group: offspring, developmental / developmental landmark / preputial separation / preputial separation) was 100 mg/kg/day. The LOAEL (rat [10]; [32]) was 300 mg/kg/day, the NOAEL (rat [10]; [32]) was 100 mg/kg/day and the NEL (rat [10]; group: offspring, systemic / in life observation / body weight / offspring (pup) weight gain + developmental / developmental landmark / preputial separation…) was 30 mg/kg/day. For the same compound, the LEL (rat [10]; [33]) was 30 mg/kg/day, the NEL (rat [10]; [33]) was < 30 mg/kg/day and the LOAEL (rat [10]; [34]) was 100 mg/kg/day. For the same compound, the NOAEL (rat [10]; [34]) was 30 mg/kg/day.
In the case of `CCC/C(=N\OCC)C1=C(O)CC(CC(C)SCC)CC1=O` (stereo unspecified) [Sethoxydim], the LOAEL (dog [11]; [35]) is reported as 110 mg/kg/day, the NOAEL (dog [11]; [35]) is reported as 17.5 mg/kg/day and the LEL (dog [11]; [36]) is reported as 8.7 mg/kg/day. For the same compound, the NEL (dog [11]; [36]) was < 8.7 mg/kg/day, the LEL (mouse [12]) was 137 mg/kg/day and the LOAEL (mouse [12]) was 137 mg/kg/day. For the same compound, the NEL (mouse [12]) was 45.6 mg/kg/day, the NOAEL (mouse [12]) was 45.6 mg/kg/day and the LEL (rabbit; [37]) was 400 mg/kg/day. For the same compound, the LOAEL (rabbit; [37]) was 400 mg/kg/day, the NEL (rabbit; [37]) was 160 mg/kg/day and the NOAEL (rabbit; [37]) was 160 mg/kg/day. For the same compound, the LEL (rabbit; [38]) was 400 mg/kg/day, the LOAEL (rabbit; [38]) was 400 mg/kg/day and the NEL (rabbit; [38]) was 160 mg/kg/day. The NOAEL (rabbit; [38]) was 160 mg/kg/day, the LEL (rat [13]; [39]) was 12 mg/kg/day and the NEL (rat [13]; [39]) was < 12 mg/kg/day. The LOAEL (rat [13]; systemic / pathology microscopic / liver / hypertrophy) was 48 mg/kg/day, the NOAEL (rat [13]; systemic / pathology microscopic / liver / hypertrophy + systemic / clinical chemistry / alkaline phosphatase (alp/alk) / alkaline …) was 12 mg/kg/day and the LEL (mouse [14]; [40]) was 4.85 mg/kg/day. The NEL (mouse [14]; [40]) was < 4.85 mg/kg/day, the LOAEL (mouse [14]; [41]) was 41.2 mg/kg/day and the NOAEL (mouse [14]; [41]) was 13.8 mg/kg/day. For the same compound, the LOAEL (rat [15]; [42]) was 196 mg/kg/day, the NEL (rat [15]; [42]) was 20.1 mg/kg/day and the NOAEL (rat [15]; [42]) was 60.4 mg/kg/day. For the same compound, the LEL (rat [15]; systemic / organ weight / liver / relative to body weight + systemic / pathology microscopic / liver / hypertrophy) was 60.4 mg/kg/day, the LEL (rat [16]; group: developmental, developmental / developmental malformation / bone / absent) was 180 mg/kg/day and the LOAEL (rat [16]; [43]) was 650 mg/kg/day. The NEL (rat [16]; [43]) was 50 mg/kg/day, the NOAEL (rat [16]; [43]) was 180 mg/kg/day and the LOAEL (rat [16]; group: maternal, systemic / in life observation / clinical signs / abnormal gait) was 180 mg/kg/day. It also gave an NEL (rat [16]; [44]) of 180 mg/kg/day, an NOAEL (rat [16]; [44]) of 50 mg/kg/day and an LEL (rat [16]; group: maternal, systemic / in life observation / clinical signs / abnormal gait + systemic / in life observation / clinical signs / anogenital staining + …) of 650 mg/kg/day.
